In this test the test system is ACHN cell line. Description: drug screen of the SelleckChem kinase inhibitor library with and without 5 uM SU-329, Cell-Titer Glo after 5 days. Format: cell-based. The note with it: kinase inhibitor at 200 nM with and without 5 uM SU329; ACHN cell line; 5 days; Cell-Titer Glo.

The results in this text go back to patent publication US12195490B2, “STRAD-binding agents and uses thereof” (The Regents of the University of California, priority 2020, dated 2025).

With 10058-F4, the log2fc was determined as 0.2472.

Turning to `O=C1NC(=O)C(=Cc2ccc(-c3ccc(F)cc3)o2)S1` (stereo in doubt) [CAY10505], the log2fc is 0.3828.

Take `Cn1cnc(N)c2ncnc1-2` [3-Methyladenine (3-MA)]: the log2fc was found to be 0.3232.

In turn, `Cc1[nH]nc2ccc(-c3cncc(OC[C@@H](N)Cc4ccccc4)c3)cc12` [A-674563] returned a log2fc of −0.6438.

On to `N#Cc1c(O)c2c(-c3ccc(-c4ccccc4O)cc3)csc2[nH]c1=O` [A-769662], for which the log2fc was determined as 0.1798.

In turn, `Cc1c(NC(=O)OC[C@@H]2COCCN2)cn2ncnc(Nc3ccc4c(cnn4Cc4cccc(F)c4)c3)c12` [AC480 (BMS-599626)] registered a log2fc of 0.6806.

Molecule `CCN1CCN(Cc2ccc(-c3cc4c(N[C@H](C)c5ccccc5)ncnc4[nH]3)cc2)CC1` [AEE788 (NVP-AEE788), AEE788, reference compound] had a log2fc of 0.07427.

For `N#C/C(=C/c1ccc(O)c(O)c1)C(=O)NCc1ccccc1` [AG-490 (Tyrphostin B42), AG-490, reference compound], the log2fc is listed as −0.01509.

For the molecule `CC(C)(C)c1cc(C=C(C#N)C#N)cc(Br)c1O` [AG-1024], the log2fc is on record as −0.3636.

In turn, `COc1cc2ncnc(Nc3cccc(Cl)c3)c2cc1OC` [AG-1478 (Tyrphostin AG-1478), AG-1478, reference compound] had a log2fc of 0.2903.

Take `NC(=O)c1ncn([C@@H]2O[C@H](CO)[C@@H](O)[C@H]2O)c1N` [AICAR (Acadesine)]: the log2fc amounted to 0.7164.

The molecule `COc1cc(N2CCC(N(C)C)CC2)ccc1Nc1ncc(Cl)c(Nc2ccccc2P(C)(C)=O)n1` [ALK-IN-1] yielded a log2fc of −0.4692.

Turning to `COc1ccc2c(Oc3ccc(NC(=O)c4c(C)n(CC(C)(C)O)n(-c5ccccc5)c4=O)nc3)ccnc2c1` [AMG-458], the log2fc was found to be 0.0395.

Take `Cc1csc(-c2nnc(Nc3ccc(Oc4ncccc4-c4ccnc(N)n4)cc3)c3ccccc23)c1` [AMG-900]: the log2fc was 0.883.

Turning to `COc1ccc(CNC(=O)Nc2ncc([N+](=O)[O-])s2)cc1` [AR-A014418], the log2fc is given as 0.1293.

With `O=C1NC(=O)/C(=C/c2ccc(-c3ccc(F)cc3O)o2)S1` [AS-252424], the log2fc is recorded as −0.1563.

With `O=C1NC(=O)/C(=C/c2ccc3c(c2)OC(F)(F)O3)S1` [AS-604850], the log2fc stood at 0.4876.

`C=CC(=O)Nc1ccc2ncnc(Nc3ccc(OCc4cccc(F)c4)c(Cl)c3)c2c1` [AST-1306, reference compound] gave a log2fc of 0.0584.

In turn, `O=C(NC1CCNCC1)c1n[nH]cc1NC(=O)c1c(Cl)cccc1Cl` [AT7519] displayed a log2fc of −1.085.

The molecule `Clc1ccc(C2(c3ccc(-c4cn[nH]c4)cc3)CCNCC2)cc1` [AT7867] returned a log2fc of −0.935.

`O=C(Nc1c[nH]nc1-c1nc2ccc(CN3CCOCC3)cc2[nH]1)NC1CC1` [AT9283] gave a log2fc of 2.163.

In turn, `C[C@@H]1COCCN1c1cc(C2(S(C)(=O)=O)CC2)nc(-c2cccc3[nH]ccc23)n1` [AZ20] returned a log2fc of −0.01528.

Consider `Cc1ccc(NC(=O)c2cccc(C(C)(C)C#N)c2)cc1Nc1ccc2ncn(C)c(=O)c2c1` [AZ 628], for which the log2fc is 0.4319.

`Cc1cc(Nc2nc(N[C@@H](C)c3ccc(F)cc3)c(C#N)cc2F)n[nH]1` [AZ 960] came in with a log2fc of 0.979.

The molecule `N#Cc1ccc2[nH]c(O)c(-c3ccc(CN4CCOCC4)cn3)c2c1` [AZD1080] gave a log2fc of 1.953.

Turning to `N[C@@H]1CCCN(c2c(/C=C3\SC(=O)NC3=O)cccc2-c2ccccc2)C1` [AZD1208], the log2fc is recorded as −0.4967.

Molecule `Cc1cc(Nc2nc(N[C@@H](C)c3ncc(F)cn3)ncc2Cl)[nH]n1` [AZD1480] had a log2fc of 0.4813.

`CN1CCN(S(=O)(=O)c2ccc(-c3cnc(N)c(C(=O)Nc4cccnc4)n3)cc2)CC1` [AZD2858]: the log2fc turned out to be 0.1991.

The molecule `COc1cc2ncnc(Oc3ccc(CC(=O)Nc4cnn(C(C)C)c4)cc3)c2cc1OC` [AZD2932] showed a log2fc of 0.4428.

As for `COc1cc(N2CCC(N)CC2)ccc1Nc1ncc(Cl)c(-c2c[nH]c3ccccc23)n1` [AZD3463], the log2fc is −0.06328.

`COc1cc(CCc2cc(NC(=O)c3ccc(N4CC(C)NC(C)C4)cc3)n[nH]2)cc(OC)c1` (centres unmarked) [AZD4547] gave a log2fc of 0.4725.

`Cc1ncc(-c2ccnc(Nc3ccc(S(C)(=O)=O)cc3)n2)n1C(C)C` [AZD5438] displayed a log2fc of 1.871.

In the case of `Cc1cc([C@@H](C)Nc2ccccc2C(=O)O)c2nc(N3CCOCC3)cc(=O)n2c1` [AZD6482], the log2fc is −0.1098.

`NC(=O)Nc1cc(-c2cccc(F)c2)sc1C(=O)N[C@H]1CCCNC1` [AZD7762] came in with a log2fc of 0.8568.

Molecule `COc1ccc(-c2ccc3c(N4CCOC[C@@H]4C)nc(N4CCOC[C@@H]4C)nc3n2)cc1CO` [AZD8055] returned a log2fc of 0.1024.

Take `Cc1cc(C(=O)NOCCO)c(Nc2ccc(I)cc2F)n(C)c1=O` [AZD8330]: the log2fc is on record as 0.5935.

The molecule `CN(C)C/C=C/C(=O)Nc1cc2c(Nc3ccc(F)c(Cl)c3)ncnc2cc1O[C@H]1CCOC1` [Afatinib (BIBW2992), afatinib, reference compound] gave a log2fc of 0.04313.

As to `COc1cc(Nc2ncc3c(n2)-c2ccc(Cl)cc2C(c2c(F)cccc2OC)=NC3)ccc1C(=O)O` [Alisertib (MLN8237)], the log2fc was 0.7052.

Regarding `Cc1nc(NC(=O)N2CCC[C@H]2C(N)=O)sc1-c1ccnc(C(C)(C)C(F)(F)F)c1` [Alpelisib (BYL719)], the log2fc was −0.1349.

Turning to `S=C(NCc1ccc2c(c1)OCO2)N1CCN(c2ncnc3c2oc2ccccc23)CC1` [Amuvatinib (MP-470)], the log2fc is recorded as −0.2594.

`N#CC1(c2ccc(NC(=O)c3cccnc3NCc3ccncc3)cc2)CCCC1` [Apatinib] came in with a log2fc of 0.257.

`Cc1c(CN2CCN(C(=O)[C@H](C)O)CC2)sc2c(N3CCOCC3)nc(-c3cnc(N)nc3)nc12` [Apitolisib (GDC-0980, RG7422)] showed a log2fc of −0.658.

`C[C@H]1[C@H](C)CC[C@]2(C(=O)O)CC[C@]3(C)C(=CC[C@@H]4[C@@]5(C)C[C@@H](O)[C@H](O)[C@@](C)(CO)[C@@H]5CC[C@]43C)[C@H]12` [Asiatic Acid] showed a log2fc of 0.1505.

Regarding `CCN1CCN(C(=O)Cc2ccc(Nc3ncc(F)c(Nc4ccc(C(=O)Nc5ccccc5Cl)cc4)n3)cc2)CC1` [Aurora A Inhibitor I], the log2fc is recorded as −0.1962.

Regarding `CNC(=O)c1ccccc1Sc1ccc2c(/C=C/c3ccccn3)n[nH]c2c1` [Axitinib], the log2fc is 0.00155.

The molecule `Cc1ccc(S(=O)(=O)/C=C/C#N)cc1` [BAY 11-7082, reference compound] yielded a log2fc of −0.1258.

Regarding `COc1ccc(-c2ccc3ncc4c(c3c2)n(-c2ccc(N3CCNCC3)c(C(F)(F)F)c2)c(=O)n4C)cn1` [BGT226 (NVP-BGT226)], the log2fc was −0.4638.

With `CC[C@@H]1C(=O)N(C)c2cnc(Nc3ccc(C(=O)NC4CCN(C)CC4)cc3OC)nc2N1C1CCCC1` [BI 2536], the log2fc was found to be 1.415.

`CC(C)CCN1c2nc(Nc3cc(F)c(O)c(F)c3)ncc2N(C)C(=O)C1C` (centres unmarked) [BI-D1870] yielded a log2fc of 0.7499.

The molecule `O=C1Nc2cc(Br)ccc2/C1=C1/Nc2ccccc2/C1=N\O` [BIO] showed a log2fc of −0.1795.
